Source: US11718628B2, “SREBP inhibitors comprising a 6-membered central ring” (Capulus Therapeutics, LLC, priority 2018, dated 2023)
Read-outs that look alike come from different tables or passages of the source.

Key:
[1] = test system: liver gene expression (ACACA, ACLY, FASN, LSS, PNPLA3); experiment: Liver gene expression in mice after oral administration; type: in vivo; details: 30 mpk, vs vehicle
Protocol: (§1) The pharmacodynamic properties of selected compounds were evaluated in mice. The animals were housed in cages with clean bedding, and maintained and monitored for good health in accordance with Test Facility SOPs and at the discretion of the laboratory animal veterinarian. Certified rodent diet was provided. Food and water was available ad libitum. Environmental controls for the animal room were set to maintain a temperature of 22° C. to 25° C., humidity of 40-70% RH, and a 12-hour light/[…]. Normal healthy animals certified by the attending veterinarian were selected and acclimatized for minimum three days prior to initiation of study. Animals were identified with body markings.
(§2) Aliquots of the compounds being evaluated were weighed and triturated with 0.5% methylcellulose (with the addition of 5% N-methyl pyrrolidone when required to remove clumping, as for Z-806) to an appropriate dose concentration. Vials were labeled with the information about study number, test item, concentration and date of preparation. A description of appearance of formulation was recorded (e.g., color, turbidity, etc.). The composition of formulation vehicle was recorded. An aliquot of each dose solution was taken before the dosing began and after dosing was finished, and stored at approximately −20° C. or below for subsequent analysis. The animals were dosed orally through oral gavage needle, and time of dosing was recorded.
(§3) Liver Collection at 6 h or 24 h: Immediately after blood withdrawal for pharmacokinetic evaluation (at 6 or at 24 h), liver tissue was collected without perfusion. Animals were euthanized using carbon dioxide gas in a CO2 chamber. The whole blood was drained by cutting the both side jugular vein and abdominal aorta. The liver was separated out. All the liver samples were divided in two parts. The first part (200 mg approx.) was snap frozen using liquid nitrogen as soon as possible. These samples were immediately transferred to −80° C. for storage. The remaining part was weighed and used for bioanalysis.
RNA Processing and Gene Expression Analysis: Liver Tissue RNA was harvested with the RNEasy kit and 20-100 ng used to synthesize cDNA with random primers following the manufacturer's protocol. Quantitative PCR was performed on 1 pg to 100 ng cDNA for the following genes: ACACA, ACLY, FASN, LSS, PNPLA3. Gene expression levels were determined using ΔΔCT method comparing treated to vehicle treated samples as a baseline, and fold change calculated. The average value for all 5 genes above was averaged and termed to Total Fold Change The results from this evaluation are presented in Table 8.

[2] = In vivo pharmacokinetic properties in rats (IV and PO); set-up: species or system male Sprague Dawley rats
Protocol: (§4) The in vivo pharmacokinetic properties of compounds by both intravenous and oral administration were evaluated in male Sprague Dawley rats or C57BL/6J mice.
(§5) Animals were housed in cages with clean bedding. Certified rodent diet was provided. Water was available ad libitum. Environmental controls for the animal room were set to maintain a temperature of 22° C. to 25° C., humidity of 40-70% RH, and a 12-hour light/12-hour dark cycle. Normal healthy animals certified by the attending veterinarian were selected and acclimatized for minimum three days prior to initiation of study.
Surgical Procedure for Jugular Vein Cannulation of Rats: Rats were anaesthetized with a single dose of ketamine 50 mg/kg i.p.+xylazine 6 mg/kg i.p. The right jugular vein was exposed, a loose ligature was placed caudally, and the cranial end of vein was ligated. A small incision was made between the ligatures into which the catheter (polyethylene 50 tubing of internal diameter 0.58 mm and outer diameter 0.96 mm) was inserted. The catheter was secured in place by tying the loose ligature around the catheterized vessel. A small incision was made in the scapular region to serve as the exit site of the catheter. The catheter was subcutaneously tunneled and exteriorized through scapular incision. A stay suture was placed in the scapular area. Patency was tested, and catheter was filled with a locking solution (heparinized saline) and sealed with a stainless steel plug. The incision was then sutured with sterile suturing material. Anti-septic solution was applied to the sutured site and animal was placed back in the home cage.
(§6) To evaluate pharmacokinetic properties of intravenous delivery, male Sprague Dawley rats were administered 2.00 mg compound/kg animal weight through the tail vein. The concentration of the compound in the plasma of the animals was evaluated at 0.083, 0.25, 0.5, 1, 2, 4, 8, 12 and 24 hr by taking blood samples from the cannulated jugular vein. For the C5Bl/6J mice, blood samples were collected through a capillary, guided in retro-orbital plexus.
To evaluate pharmacokinetic properties of oral delivery, rats (male Sprague Dawley rats) or mice (C5Bl/6J) were administered 10 mg compound/kg animal weight by mouth. The concentration of compound in the plasma of the animals was evaluated at 0.25, 0.5, 1, 2, 4, 6, 8, 12 and 24 hr by taking blood samples from the cannulated jugular vein (rats) or through a capillary, guided in retro-orbital plexus (mice).

[3] = Log D by octanol/aqueous buffer partitioning; type: physicochemical; details: pH 7.4, 1-octanol/buffer
Protocol: The Log D of selected compounds was evaluated by octanol/aqueous buffer partitioning. 500 μL of organic phase (1-octanol) was added to each well of a 2 mL deep well plate, followed by 500 μL of buffer and 15 μL of test compound in DMSO (0.15 mM). The plate was vortexed for 10 seconds and incubated at room temperature for 1 hr on a plate shaker at 200 rpm. After incubation, the samples were allowed to equilibrate for 20 min and then centrifuged at 4000 rpm for 30 min for complete phase separation. The distribution of test compound in buffer and octanol phase was analyzed by HPLC-UV. Log D=Log (Area of Octanol/Area of Buffer).

[4] = In vivo pharmacokinetic properties in mice (IV and PO); set-up: species or system C57BL/6J mice; details: mouse, in vivo; for Oral Administration (PO) AUC0-last / Oral Administration (PO) T1/2 / Oral Administration (PO) Tmax: 10 mg/kg
Protocol: as §4, §5, §6
[…] The concentration of compound in the plasma of the animals was evaluated at 0.25, 0.5, 1, 2, 4, 6, 8, 12 and 24 hr by taking blood samples from the cannulated jugular vein (rats) or through a capillary, guided in retro-orbital plexus (mice).

[5] = Plasma and liver compound levels in mice after oral administration; type: in vivo; details: 30 mpk; for concentration at 6 h / concentration at 24 h: mouse, 30 mg/kg
Protocol: as §1, §2
After dosing, the mice were anesthetized using gaseous anesthesia. Blood samples were collected through a capillary, guided in retro-orbital plexus, at 6 h or at 24 h. Approximately 100 uL of blood was collected from each mouse, in pre-labeled tubes. The collected blood was stored on ice prior to centrifugation. Blood samples were then centrifuged within 1 hour of collection to separate plasma. Centrifugation was conducted at 2500×g for 15 minutes at 4° C. The plasma was separated and transferred to pre-labeled micro-centrifuge tubes and promptly frozen at −80±10° C. until bioanalysis.
as §3

CC(C)OC(=O)Nc1ccc(-c2cncc(-c3ccnc(C(C)(C)C)c3)c2)c(Cl)c1 [Compound Z-774]
Total Gene FC Time (6 h) [1]: ++ (0.51-0.7509 = ++)
Total Gene FC Time (24 h) [1]: +++ (0-0.509 = +++)
Intravenous Delivery (IV) CL ([2]; IV, 2 mg/kg): 15.7 mL/min/kg
Intravenous Delivery (IV) T1/2 ([2]; IV, 2 mg/kg): 5.92 h
Intravenous Delivery (IV) Vd ([2]; IV, 2 mg/kg): 7.97 L/kg
% F (Bioavailability of oral delivery) ([2]; PO 10 mg/kg vs IV 2 mg/kg): 5.8%
Oral Administration (PO) AUC0-last ([2]; PO, 10 mg/kg): 604
Oral Administration (PO) T1/2 ([2]; PO, 10 mg/kg): 3.74 h
Oral Administration (PO) Tmax ([2]; PO, 10 mg/kg): 0.333 h
LogD [3]: 4.12
% F (Bioavailability of oral delivery) [4]: 16%
Intravenous Delivery (IV) AUC0-last ([4]; iv, 2 mg/kg): 1780 ng·h/mL
Intravenous Delivery (IV) CL ([4]; iv, 2 mg/kg): 18.5 mL/min/kg
Intravenous Delivery (IV) T1/2 ([4]; iv, 2 mg/kg): 5.31 h
Intravenous Delivery (IV) Vd ([4]; iv, 2 mg/kg): 8.51 L/kg
Oral Administration (PO) AUC0-last ([4]; po): 1380 ng·h/mL
Oral Administration (PO) T1/2 ([4]; po): 6.79 h
Oral Administration (PO) Tmax ([4]; po): 0.5 h
Liver ng/mg (6 h) [5]: >1000 ng/mg
Plasma ng/mL (6 h) [5]: 100 to 1000 ng/mL
Liver ng/mg 24 h [5]: >1000 ng/mg
Plasma ng/mL (24 h) [5]: 100 to 1000 ng/mL

CC1(O)CCN(C(=O)c2ccc(-c3cncc(-c4ccnc(C(C)(C)C)c4)c3)c(Cl)c2)CC1 [Compound Z-780]
Total Gene FC Time (6 h) [1]: + (>0.751 = +)
Total Gene FC Time (24 h) [1]: ++ (0.51-0.7509 = ++)
Intravenous Delivery (IV) CL ([2]; IV, 2 mg/kg): 16.7 mL/min/kg
Intravenous Delivery (IV) T1/2 ([2]; IV, 2 mg/kg): 1.14 h
Intravenous Delivery (IV) Vd ([2]; IV, 2 mg/kg): 1.64 L/kg
% F (Bioavailability of oral delivery) ([2]; PO 10 mg/kg vs IV 2 mg/kg): 29%
Oral Administration (PO) AUC0-last ([2]; PO, 10 mg/kg): 2989
Oral Administration (PO) T1/2 ([2]; PO, 10 mg/kg): 0.92 h
Oral Administration (PO) Tmax ([2]; PO, 10 mg/kg): 0.75 h
LogD [3]: 3.76
% F (Bioavailability of oral delivery) [4]: 33%
Intravenous Delivery (IV) AUC0-last ([4]; iv, 2 mg/kg): 913 ng·h/mL
Intravenous Delivery (IV) CL ([4]; iv, 2 mg/kg): 36.3 mL/min/kg
Intravenous Delivery (IV) T1/2 ([4]; iv, 2 mg/kg): 2.02 h
Intravenous Delivery (IV) Vd ([4]; iv, 2 mg/kg): 6.33 L/kg
Oral Administration (PO) AUC0-last ([4]; po): 1510 ng·h/mL
Oral Administration (PO) T1/2 ([4]; po): 1.24 h
Oral Administration (PO) Tmax ([4]; po): 0.25 h
Liver ng/mg (6 h) [5]: >1000 ng/mg
Plasma ng/mL (6 h) [5]: 100 to 1000 ng/mL
Liver ng/mg 24 h [5]: >100 ng/mg
Plasma ng/mL (24 h) [5]: <100 ng/mL

O=C(c1ccc(-c2cncc(-c3ccnc4c3OCCO4)c2)c(Cl)c1)N1CCC(O)CC1 [Compound Z-806, (3-chloro-4-(5-(2,3-dihydro-[1,4]dioxino[2,3-b]pyridin-8-yl)pyridin-3-yl)phenyl)(4-hydroxypiperidin-1-yl)methanone]
Total Gene FC Time (6 h) [1]: ++ (0.51-0.7509 = ++)
Total Gene FC Time (24 h) [1]: +++ (0-0.509 = +++)
AUC(0-t) ([2]; male, Sprague Dawley, rat, plasma, 10 mg/kg, heading: Oral Administration AUC0-last, PO, 10 mg/kg): 272 ng·h/mL
AUC(0-t) ([2]; male, Sprague Dawley, rat, plasma, IV, 2 mg/kg, read-out: Intravenous Delivery (IV) AUC0-last): 2630 ng·h/mL
clearance ([2]; male, Sprague Dawley, rat, plasma, IV, 2 mg/kg, read-out: Intravenous Delivery (IV) CL): 12.8 mL/min/kg
half-life ([2]; male, Sprague Dawley, rat, plasma, IV, 2 mg/kg, read-out: Intravenous Delivery (IV) T1/2 (converted)): 2.03 h
Vd ([2]; male, Sprague Dawley, rat, plasma, IV, 2 mg/kg, read-out: Intravenous Delivery (IV) Vd): 2.26 L/kg
bioavailability ([2]; male, Sprague Dawley, rat, plasma, PO 10 mg/kg vs IV 2 mg/kg, read-out: % F (Bioavailability of oral delivery)): 2.1%
half-life ([2]; male, Sprague Dawley, rat, plasma, PO, 10 mg/kg, read-out: Oral Administration (PO) T1/2 (converted)): 2.5 h
Tmax ([2]; male, Sprague Dawley, rat, plasma, PO, 10 mg/kg, read-out: Oral Administration (PO) Tmax): 0.33 h
LogD ([3]; 1-octanol/aqueous buffer, read-out: LogD): 1.98
bioavailability ([4]; C57BL/6J): 58%
AUC(0-t) ([4]; C57BL/6J, iv, 2 mg/kg): 1540 ng·h/mL
Vd ([4]; C57BL/6J, iv, 2 mg/kg): 8.91 L/kg
clearance ([4]; C57BL/6J, iv, 2 mg/kg): 21 mL/min/kg
half-life ([4]; C57BL/6J, iv, 2 mg/kg): 4.89 h
AUC(0-t) ([4]; C57BL/6J, po, 3 mg/kg): 1370 ng·h/mL
Tmax ([4]; C57BL/6J, po, 3 mg/kg): 0.25 h
half-life ([4]; C57BL/6J, po, 3 mg/kg): 3.51 h
concentration at 6 h ([5]; liver, read-out: Liver ng/mg (6 h)): > 1e+06 ng/g
concentration at 24 h ([5]; liver, read-out: Liver ng/mg 24 h): > 1e+06 ng/g
concentration at 6 h ([5]; plasma, read-out: Plasma ng/mL (6 h)): > 1000 ng/mL
concentration at 24 h ([5]; plasma, read-out: Plasma ng/mL (24 h)): > 1000 ng/mL

COc1c(-c2ccnc(C(C)(C)C)c2)cncc1-c1ccc(C(=O)N2CCC(O)CC2)cc1Cl [Compound Z-840, (4-(2′-(tert-butyl)-4-methoxy-[3,4′-bipyridin]-5-yl)-3-chlorophenyl)(4-hydroxypiperidin-1-yl)methanone]
melting point: 105 to 109 °C
